The assay has as its target T1, CCR2 (Homo sapiens, UniProt P41597).
T1 construct: THP-1 human monocytic leukemic cell line, which expresses endogenous CCR2; endogenous in cells; host or cells: human peripheral blood mononuclear cells, human monocytes or THP-1 cells
T1 sequence (P41597 1-360 isoform P41597-2): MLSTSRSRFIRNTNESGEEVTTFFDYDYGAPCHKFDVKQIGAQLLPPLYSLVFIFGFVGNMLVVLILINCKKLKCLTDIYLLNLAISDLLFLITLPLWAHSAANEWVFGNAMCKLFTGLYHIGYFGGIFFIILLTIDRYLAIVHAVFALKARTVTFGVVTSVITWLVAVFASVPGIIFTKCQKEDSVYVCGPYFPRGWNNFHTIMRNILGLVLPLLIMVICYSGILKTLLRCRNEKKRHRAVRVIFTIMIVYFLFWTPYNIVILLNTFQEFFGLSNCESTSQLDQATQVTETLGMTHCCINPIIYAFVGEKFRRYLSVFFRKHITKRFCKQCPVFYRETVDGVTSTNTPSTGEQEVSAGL
In words: CCR2 binding: antagonism of 125I-MCP-1 binding (human PBMC / THP-1 whole cell). Conditions: n = 1 unless otherwise noted. As for the experimental part: Antagonism of MCP-1 Binding to Human PBMC
Millipore filter plates (#MABVN1250) are treated with 100 μl of binding buffer (0.5% bovine serum albumin, 20 mM HEPES buffer and 5 mM magnesium chloride in RPMI 1640 media) for thirty minutes at room temperature. To measure binding, 50 μl of binding buffer, with or without a known concentration compound, is combined with 50 μl of ^125-I labeled human MCP-1 (to give a final concentration of 150 pM radioligand) and 50 μl of binding buffer containing 5×10^5 cells. Cells used for such binding assays can include human peripheral blood mononuclear cells isolated by Ficoll-Hypaque gradient centrifugation, human monocytes (Weiner et al., J. Immunol. Methods. 1980, 36, 89), or the THP-1 cell line which expresses the endogenous receptor. The mixture of compound, cells and radioligand are incubated at room temperature for thirty minutes. Plates are placed onto a vacuum manifold, vacuum applied, and the plates washed three times with binding buffer containing 0.5M NaCl. The plastic skirt is removed from the plate, the plate allowed to air dry, the wells punched out and counted. The percent inhibition of binding is calculated using the total counts obtained in the absence of any competing compound and the background binding determined by addition of 100 nM MCP-1 in place of the test compound.
THP-1 Monocytic Cell Binding: Whole Cell-based Assay
The human CCR2 binding assay was also established with the THP-1 human monocytic leukemic cell line, which expresses endogenous CCR2, using ^125I-human MCP-1 as the tracer ligand. Radioligand competition binding assays were used for assessment of binding affinity of test compounds to the CCR2 receptor. For radioligand competition studies, 100 μl containing 2.5×10^5 THP-1 cells/well (in assay buffer containing 50 mM HEPES, pH7.4, 5 mM MgCl2, 1 mM CaCl2 and 0.5% BSA) were added to 96-well assay plates containing the test compounds in 3-fold serial dilution, with final concentrations ranging from 5 μM to 100 pM. Subsequently, 50 μl ^125I-MCP-1 radioligand at a final concentration of 0.2 nM in assay buffer were added to the reaction. After a 90 minute incubation period at room temperature, the binding reaction was terminated by harvesting on GF/B filter plates (PerkinElmer Cat. No. 6005177) followed by washing with ice-cold wash buffer (50 mM HEPES, pH 7.4, 0.1% BSA, 0.5 M NaCl) to remove unbound ligand. After washing, the plate was dried for 45 minutes at 60° C. followed by addition of 40 μl MicroScint 20 scintillation fluid, sealed and analyzed by the Packard TopCount reader. Non-specific binding was determined in the presence of 10 μM (a molar excess of 5000 fold) of an in-house CCR2 small molecule antagonist (CCR2 IC50=2 nM). Specific binding of ^125I-MCP-1 was calculated as the difference between total and non-specific binding. The competition data was plotted as a percentage inhibition of radioligand specific bound in the absence of test compound (percent of total signal). After correcting for non-specific binding, IC50 values were determined. The IC50 is defined as the concentration of test compound required to reduce ^125I-MCP-1 specific binding by 50% and was calculated using the four parameter logistic equation to fit the normalized data.
`C[C@H]1CCC(C(=O)O)[C@](C)(c2cccc(C(F)(F)F)c2)C1` (mixture of isomers) [Example 2, (2RS,4SR)-2,4-dimethyl-2-(3-(trifluoromethyl)phenyl)cyclohexanecarboxylic acid] showed a Ki of 5800 nM.

Consider `C[C@@H]1CC=C(C(=O)NS(C)(=O)=O)[C@@](C)(c2ccc(Cl)c(Cl)c2)C1` (racemic) [Example 3-01, (4RS,6RS)-6-(3,4-dichlorophenyl)-4,6-dimethyl-N-(methylsulfonyl)cyclohex-1-enecarboxamide], for which the affinity corresponds to a Ki of 5400 nM.

`C[C@@H]1CC=C(C(=O)NS(=O)(=O)C(F)(F)F)[C@@](C)(c2ccc(Cl)c(Cl)c2)C1` (racemic) [Example 3-02, (4RS,6RS)-6-(3,4-dichlorophenyl)-4,6-dimethyl-N-(trifluoromethylsulfonyl)-cyclohex-1-enecarboxamide] yielded a Ki of 6600 nM. The Ki values of the last two compounds are within 1.5-fold of each other.

For the compound `C[C@@H]1CC=C(C(=O)NS(=O)(=O)c2ccccc2)[C@@](C)(c2ccc(Cl)c(Cl)c2)C1` (racemic) [Example 3-03, (4RS,6RS)-6-(3,4-dichlorophenyl)-4,6-dimethyl-N-(phenylsulfonyl)cyclohex-1-enecarboxamide], affinity was put at a Ki of 150 nM.

As to `CC1=C(C(=O)O)[C@@](O)(c2ccc(Cl)c(Cl)c2)C[C@H](C)C1` (racemic) [Example 5, (4RS,6SR)-6-(3,4-dichlorophenyl)-6-hydroxy-2,4,-dimethylcyclohex-1-enecarboxylic acid], the affinity, expressed as Ki, was 1000 nM.

Regarding `CC1=C(C(=O)O)[C@@](C)(c2ccc(Cl)c(Cl)c2)C[C@H](C)C1` (racemic) [Example 6, (4RS,6RS)-6-(3,4-dichlorophenyl)-2,4,6-trimethylcyclohex-1-enecarboxylic acid], the inhibition constant Ki was 580 nM.

For `C[C@]1(c2ccc(Cl)c(C(F)(F)F)c2)C[C@H](CO)CC=C1C(=O)O` (racemic) [Example 7, (4RS,6RS)-6-(4-chloro-3-(trifluoromethyl)-phenyl)-4-(hydroxymethyl)-6-methylcyclohex-1-enecarboxylic acid], the inhibition constant (Ki) worked out at 210 nM. Against the preceding compound, the Ki is about 2.8-fold lower.

Consider `CC(C)(C)OC[C@@H]1CC=C(C(=O)O)[C@@](C)(c2ccc(Cl)c(C(F)(F)F)c2)C1` (racemic) [Example 10, (4RS,6RS)-4-(tert-butoxymethyl)-6-(4-chloro-3-(trifluoromethyl)phenyl)-6-methylcyclohex-1-enecarboxylic acid], for which the affinity corresponds to a Ki of 6200 nM.

`CC(=O)NC[C@@H]1CC=C(C(=O)O)[C@@](C)(c2ccc(Cl)c(C(F)(F)F)c2)C1` (racemic) [Example 11, (4RS,6RS)-4-(acetamidomethyl)-6-(4-chloro-3-(trifluoromethyl)phenyl)-6-methylcyclohex-1-enecarboxylic acid] displayed a Ki of 5500 nM.

Compound `C[C@]1(c2ccc(Cl)c(C(F)(F)F)c2)C[C@H](OCc2ccccc2)CC=C1C(=O)O` (racemic) [Example 12, (4RS,6RS)-4-(benzyloxy)-6-(4-chloro-3-(trifluoromethyl)phenyl)-6-methylcyclohex-1-enecarboxylic acid] had an inhibition constant Ki of 2500 nM.

Compound `COc1ccccc1C1(C)CCCC=C1C(=O)O` (stereo not shown) [Example 1-07, 6-(2-methoxyphenyl)-6-methyl methylcyclohex-1-enecarboxylic acid] yielded a Ki of 10000 nM.

For the compound `C[C@H]1CC=C(C(=O)O)[C@](C)(c2ccc(Cl)c(C(F)(F)F)c2)C1` [Example 4-01a, (4S,6S)-6-(4-chloro-3-(trifluoromethyl)-phenyl)-4,6-dimethylcyclohex-1-enecarboxylic acid], the affinity, expressed as Ki, was 9 nM.

The compound `C[C@@H]1CC=C(C(=O)O)[C@@](C)(c2ccc(Cl)c(C(F)(F)F)c2)C1` [Example 4-01b, (4R,6R)-6-(4-chloro-3-(trifluoromethyl)phenyl)-4,6-dimethylcyclohex-1-enecarboxylic acid] gave an inhibition constant (Ki) of 4500 nM.

Compound `C[C@H]1CC=C(C(=O)O)[C@](C)(c2ccc(Cl)c(Cl)c2)C1` [Example 4-02a, (45,65)-6-(3,4-dichlorophenyl)-4,6-dimethylcyclohex-1-enecarboxylic acid] had an inhibition constant (Ki) of 36 nM.

`C[C@@H]1CC=C(C(=O)O)[C@@](C)(c2ccc(Cl)c(Cl)c2)C1` [Example 4-02b, (4R,6R)-6-(3,4-dichlorophenyl)-4,6-dimethylcyclohex-1-enecarboxylic acid]: the Ki worked out at 5800 nM.

Consider “(4RS,6RS)-6-(4-chloro-3-(trifluoromethyl)-phenyl)-4-(hydroxymethyl)-6-methylcyclohex-1-enecarboxylic acid [Example 9]”, for which the affinity corresponds to a Ki of 310 nM.

These data come from US8507559B2, “Cyclohexenyl modulators of chemokine receptor activity” (Bristol-Myers Squibb Company, priority 2008, dated 2013).
